Values quoted from earlier work as cited in PMC7821949 (Biomolecules, 2020).

System: α-Bgt

HAP: Combinatorial high-affinity peptide HAP. (WRYYESSLLPYPD)
affinity for α-Bgt: 2 to 4 nM
